Experimental data from publication PMC12599236, “Itaconate utilisation by the human pathogen Pseudomonas aeruginosa requires uptake via the IctPQM TRAP transporter” (Biochemical Journal, 2025).

Key:
Assay type in all cases: binding
[1] = molecular target: T1, IctP (PA0884) (Pseudomonas aeruginosa, UniProt Q9I561); assay: crystal structure ([…] Å); intrinsic tryptophan fluorescence titration; nanoDSF (~[…] °C shift)
T1 construct: SBP domain (pa0884), recombinant from E. coli

[2] = molecular target: T1, IctP (PA0884); assay: intrinsic tryptophan fluorescence titration
[3] = molecular target: T1, IctP (PA0884); assay: crystal structure ([…] Å); intrinsic tryptophan fluorescence titration; nanoDSF (~[…] °C shift); remark: listed apart in the source

T1 sequence (Q9I561 entry or part of it): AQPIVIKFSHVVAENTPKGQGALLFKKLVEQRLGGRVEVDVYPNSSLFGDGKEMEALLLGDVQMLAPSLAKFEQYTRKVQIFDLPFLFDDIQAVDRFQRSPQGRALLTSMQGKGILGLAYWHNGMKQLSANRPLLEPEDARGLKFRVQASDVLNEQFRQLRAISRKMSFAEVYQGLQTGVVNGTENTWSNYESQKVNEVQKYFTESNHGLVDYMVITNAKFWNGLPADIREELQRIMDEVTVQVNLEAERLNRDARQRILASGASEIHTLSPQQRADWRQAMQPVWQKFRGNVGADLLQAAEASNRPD

## C=C(CC(=O)O)C(=O)O [itaconate, 2-methylenesuccinate]
[1]
  Kd: 180 µM

## O=C(O)C[C@H](O)C(=O)O [L-malate]
[2]
  Kd: 16.2 µM

## O=C(O)CCC(=O)O [succinate]
[3]
  Kd: 32.6 µM
